According to article PMC9697031, “Identification of Novel Diarylpyrimidines as Potent HIV-1 Non-Nucleoside Reverse Transcriptase Inhibitors by Exploring the Primer Grip Region” (Pharmaceuticals, 2022):
Where two headings read alike, the source gives them in different places.

What was measured:
[1] = tested on: HIV-1 E138K mutant strain; experiment: Anti-HIV-1 mutant strain E138K in MT-4 cells, MTT method; type: cell-based; conditions: Human immunodeficiency virus 1, MT4, read-out: EC50 E138K
Description: (§2) Evaluation of the anti-HIV activity and cytotoxicity of the target compounds was performed by utilizing the MTT method in MT-4 cells described previously [37]. Stock solutions (10 × final concentration) of test compounds were added in 25 μL volumes to two series of triplicate wells to allow simultaneous evaluation of their effects on mock- and HIV-infected cells at the beginning of each experiment. Serial five-fold dilutions of test compounds were prepared directly in flat-bottomed 96-well microtiter trays by adding 100 μL medium to the 25 μL stock solution and transferring 25 μL of this solution to another well that contained 100 μL medium using a Biomek 3000 robot (Beckman Instruments, Fullerton, CA). Each sample includes untreated control HIV- and mock-infected cell samples. WT HIV-1 strain (IIIB), HIV-1 drug-resistant strains including L100I, K103N, Y181C, Y188L, E138K, K103N/Y181C, F227L/V106A or HIV-2 strain (ROD) stock (50 μL) at 100–300 CCID50 (50% cell culture infectious dose) or culture medium was added to either the infected or mock-infected wells of the microtiter tray. Mock-infected cells were used to evaluate the effect of test compounds on uninfected cells to evaluate their cytotoxicity. Exponentially growing MT-4 cells were centrifuged for 5 min at 1000 rpm, and the supernatant was discarded. […] After infection five days, the viability of mock- and HIV-infected cells was examined spectrophotometrically by the MTT assay.

[2] = tested on: HIV-1 L100I mutant strain; experiment: Anti-HIV-1 mutant strain L100I in MT-4 cells, MTT method; type: cell-based; conditions: Human immunodeficiency virus 1, MT4, read-out: EC50 L100I
Description: as §2

in vitro = conditions: human
Description: (§1) Stock solutions (10 × final concentration) of test compounds were added in 25 μL volumes to two series of triplicate wells to allow simultaneous evaluation of their effects on mock- and HIV-infected cells at the beginning of each experiment.

[3] = tested on: HIV-1 Y188L mutant strain; experiment: Anti-HIV-1 mutant strain Y188L in MT-4 cells, MTT method; type: cell-based; conditions: Human immunodeficiency virus 1, MT4, read-out: EC50 Y188L
Description: as §2

WT HIV-1 strain (IIIB) [4] = experiment: Anti-HIV-1 (IIIB, wild-type) activity in MT-4 cells, MTT method; type: cell-based; conditions: for SI (IIIB): selectivity index, CC50/EC50 (IIIB)
Description: as §1

[5] = tested on: HIV-1 Y181C mutant strain; experiment: Anti-HIV-1 mutant strain Y181C in MT-4 cells, MTT method; type: cell-based; conditions: Human immunodeficiency virus 1, MT4, read-out: EC50 Y181C
Description: as §2

[6] = tested on: HIV-1 RES056 (K103N/Y181C) mutant strain; experiment: Anti-HIV-1 double mutant RES056 in MT-4 cells, MTT method; type: cell-based; conditions: Human immunodeficiency virus 1, MT4, read-out: EC50 RES056
Description: as §2

HIV-1 WT RT [7] = molecular target: T1, HIV-1 WT RT (Human immunodeficiency virus type 1 group M subtype B, UniProt P04585); parameters: method as in PMID 35061384; conditions: incorporation of biotin-dUTP; used for comparison ref 5; cited from earlier work
T1 construct: The RT is a heterodimer consisting of two subunits, p66 (560 residues) and p51 (440 residues); purchased Roche

[8] = tested on: HIV-1 K103N mutant strain; experiment: microbe, parasite or virus in culture; type: cell-based; conditions: for EC50: Human immunodeficiency virus 1, MT4, read-out: EC50 K103N; for Resistance Folds K103N: RF, EC50 (K103N)/EC50 (WT)
Description: as §1

[9] = tested on: HIV-1 F227L + V106A mutant strain; experiment: Anti-HIV-1 double mutant F227L + V106A in MT-4 cells, MTT method; type: cell-based; conditions: Human immunodeficiency virus 1, MT4, read-out: EC50 F227L + V106A
Description: as §2

HIV-2 strain (ROD) = experiment: Anti-HIV-2 (ROD) activity in MT-4 cells, MTT method; type: cell-based; conditions: Human immunodeficiency virus 2, MT4, read-out: EC50 ROD
Description: as §1

HIV-1 WT RT [10] = molecular target: T1, HIV-1 WT RT; experiment: HIV-1 RT inhibition assay (Roche kit, ELISA); type: biochemical
Description: An HIV-1 reverse transcriptase (RT) assay kit produced by Roche was used for the RT inhibition assay. All the reagents for performing the RT reaction came from the kit, and the ELSIA procedures for RT inhibition assay were conducted following the description in the kit protocol [38]. […] Then used, a washing buffer was used to remove the unbound dNTPs, and an anti-DIG-POD working solution was added. […] The unbound anti-DIG-PODs were removed, and the peroxidesubstrate (ABST) solution was added to the MTPs. A colored reaction proceeds during the cleavage of the substrate catalyzed by POD. […] The percentage inhibitory activity of RT inhibitors was calculated by the formula given below: % Inhibition = [O.D. value with RT but without inhibitors − O.D. value with RT and inhibitors]/[O.D. value with RT and inhibitors − O.D. value without RT and inhibitors].

WT HIV-1 strain (IIIB) [11] = tested on: WT HIV-1 strain (IIIB); parameters: method as in PMID 35061384; conditions: MT-4 cells, WT HIV-1 IIIB; used for comparison ref 5; cited from earlier work
[12] = Human immunodeficiency virus 1, IIIB, MT4, read-out: EC50 IIIB, MT-4 cells, WT HIV-1 IIIB, MTT

SMILES	EC50 [1]	EC50 [2]	CC50 at 5 days (in vitro)	EC50 [3]	EC50 (WT HIV-1 strain (IIIB) [4]; [12])	EC50 (WT HIV-1 strain (IIIB) [4]; read-out: EC50 IIIB, MT-4 cells, WT HIV-1 IIIB, MTT)	SI (IIIB) (WT HIV-1 strain (IIIB) [4])	EC50 [5]	EC50 [6]	IC50 (HIV-1 WT RT [7])	EC50 [8]	EC50 [9]	EC50 (HIV-2 strain (ROD))	Resistance Folds K103N [8]	melting point	IC50 (HIV-1 WT RT [10])	EC50 (WT HIV-1 strain (IIIB) [11])
Cc1cc(C#N)cc(C)c1Oc1nc(Nc2ccc(C#N)cc2)nc(N)c1Br [ETR, etravirine, reference compound]	6.3 ± 1.2 nM	5.9 ± 1 nM	> 4590 nM	18.1 ± 3.2 nM	3 nM	2.9 ± 0.4 nM	>1578.9	11.1 ± 1.3 nM	29.5 ± 4.8 nM	11 nM	3 ± 0.3 nM	20.4 ± 7.8 nM					
Cc1cc(COc2ccccc2CO)cc(C)c1Oc1ccnc(Nc2ccc(C#N)cc2)n1 [TF10, 4-((4-(4-((2-(hydroxymethyl)phenoxy)methyl)-2,6-dimethylphenoxy)pyrimidin-2-yl)amino)benzonitrile]	179 ± 26.9 nM	635 ± 28.2 nM	4800 ± 342 nM	> 4800 nM	32.2 ± 3.3 nM		149.1	766 ± 22.5 nM	> 4800 nM		158 ± 18.6 nM	1490 ± 33.9 nM	> 4800 nM	4.94	179 to 182 °C	55 nM	
Cc1cc(COc2ccc(C#N)cc2)cc(C)c1Oc1ccnc(Nc2ccc(C#N)cc2)n1 [TF2, 4-((4-(4-((4-cyanophenoxy)methyl)-2,6-dimethylphenoxy)pyrimidin-2-yl)amino) benzonitrile]	44 ± 2.9 nM	117 ± 49.5 nM	> 279000 nM	1390 ± 119 nM	7.6 ± 0.6 nM		>36,610.9	139 ± 34.9 nM	> 279000 nM		28.1 ± 7.1 nM	1140 ± 346 nM	> 279000 nM	3.68	202 to 205 °C	55 ± 1 nM	
COc1cccc(OCc2cc(C)c(Oc3ccnc(Nc4ccc(C#N)cc4)n3)c(C)c2)c1 [TF6, 4-((4-(4-((3-methoxyphenoxy)methyl)-2,6-dimethylphenoxy)pyrimidin-2-yl)amino)benzonitrile]	149.7 ± 0.7 nM	156 ± 16.8 nM	6900 ± 249 nM	1390 ± 83.6 nM	35.3 ± 4.1 nM		195.6	387 ± 87.4 nM	> 6900 nM		91.2 ± 14.4 nM	1100 ± 281 nM	> 6900 nM	2.60	149 to 152 °C	52 ± 4 nM	
Cc1cc(COc2cccc(CO)c2)cc(C)c1Oc1ccnc(Nc2ccc(C#N)cc2)n1 [TF9, 4-((4-(4-((3-(hydroxymethyl)phenoxy)methyl)-2,6-dimethylphenoxy)pyrimidin-2-yl)amino)benzonitrile]	147 ± 12 nM	308 ± 46.3 nM	3460 ± 375 nM	1100 ± 95.7 nM	30.5 ± 4 nM		113.3	499 ± 44.6 nM	1590 ± 87.5 nM		120 ± 18.2 nM	1000 ± 29.6 nM	> 3460 nM	3.87	147 to 150 °C	53 nM	
Cc1cc(COc2ccccc2)cc(C)c1Oc1ccnc(Nc2ccc(C#N)cc2)n1 [TF1, 4-((4-(2,6-dimethyl-4-(phenoxymethyl)phenoxy)pyrimidin-2-yl)amino) benzonitrile]	76.5 ± 9.4 nM	221 ± 53.5 nM	> 296000 nM	1520 ± 92.1 nM	17.1 ± 2.3 nM		>17,326.7	515 ± 60.4 nM	6850 ± 1170 nM		50.7 ± 9.6 nM	1710 ± 581 nM	> 296000 nM	3.00	179 to 182 °C	62 nM	
Cc1cc(COc2cccnc2C#N)cc(C)c1Oc1ccnc(Nc2ccc(C#N)cc2)n1 [TF12, 3-((4-((2-((4-cyanophenyl)amino)pyrimidin-4-yl)oxy)-3,5-dimethylbenzyl)oxy) picolinonitrile]	46.2 ± 7.1 nM	246 ± 54.6 nM	2460 ± 198 nM	≥ 1560 nM	7.8 ± 0.8 nM		316.9	384 ± 75.5 nM	> 2460 nM		34.7 ± 8.8 nM	742 ± 145 nM	> 2460 nM	4.49	245 to 248 °C	38 ± 4 nM	
Cc1cc(/C=C/C#N)cc(C)c1Nc1ccnc(Nc2ccc(C#N)cc2)n1 [RPV, rilpivirine]																	1 ± 0.27 nM
